# Data: PMC3288125 (Cancer Chemotherapy and Pharmacology, 2011)
# Values joined by “and” are separate entries in the source; they are usually repeats but may differ in a detail not shown here. Equal entries are not always repeated. Marks after values point to notes of the source that are not given here.
# Tests used:
# [1] = in vivo, po
# [2] = Serum pharmacokinetics of intravenous 3-AP; type: in vivo, human
# [3] = tested on: advanced stage solid cancers; test: Tumor response to oral 3-AP; type: in vivo, human
# [4] = Phase I dose escalation of oral 3-AP: adverse events; type: in vivo
# advanced stage cancers = settings: cited from earlier work
# [5] = Serum pharmacokinetics and bioavailability of oral 3-AP
# [6] = Intravenous Route, 100 mg 2-hour infusion, individual patients
# [7] = of 20 enrolled patients, all dose levels
# [8] = 200 mg, represented grade 4 toxicity
# [9] = adverse events attributed to treatment, 20 patients
# [10] = Oral Route, oral dose 50 mg, individual patients
# [11] = Oral Route, oral dose 100 mg, individual patients
# [12] = Oral Route, oral dose 150 mg, individual patients
# [13] = Oral Route, oral dose 200 mg, individual patients
smiles,measurement,setting,value
"NC(=S)NN=Cc1ncccc1N [3-AP, 3-aminopyridine-2-carboxaldehyde thiosemicarbazone]","CL/F, Avg.",[1]; human,0.017 L/h
same,exposure of orally administered 3-AP versus dose,[1],increased in a dose dependent manner
same,AUC,[2]; [6],8.8 µM·h and 4.8 µM·h and 12.1 µM·h and 14.1 µM·h and 7.0 µM·h and 16.1 µM·h and 25.6 µM·h and 10.2 µM·h and 14.5 µM·h and 8.3 µM·h and 11.3 µM·h and 7.2 µM·h and 5.7 µM·h and 10.0 µM·h
same,MRT (mean residence time),[2]; [6],2.4 h and 2.6 h and 3.0 h and 3.5 h and 2.3 h and 2.7 h and 3.1 h
same,Cmax,"[2]; Intravenous Route, 100 mg 2-hour infusion, serum, individual patients",2800 nM and 5400 nM and 4700 nM and 6700 nM and 1900 nM and 3700 nM and 2700 nM and 3200 nM and 2900 nM and 2100 nM and 2500 nM
same,Tmax,"[2]; human, serum, iv, 100 mg",2 h
same,AUC,"[2]; human, serum, iv, 100 mg, AUC, Avg., 100 mg 2-hour infusion, mean",9.5 µM·h
same,Cmax,"[2]; human, serum, iv, 100 mg, Cmax, Avg., 100 mg 2-hour infusion, mean",3500 ± 1400 nM
same,MRT,"[2]; human, serum, iv, 100 mg, MRT (mean residence time), 100 mg 2-hour infusion, individual patients",2.5 h
same,MRT,"[2]; human, serum, iv, 100 mg, MRT, Avg., 100 mg 2-hour infusion, mean",2.8 h
same,Cmax,"[2]; read-out: Cmax, Avg., Intravenous Route, 100 mg 2-hour infusion, mean",2800 nM
same,median duration of stable disease response,[3]; in vivo,2 months
same,Stable disease as the best response,[3]; [7],25%
same,"Stable disease as the best response, patients",[3]; [7],5
same,Therapy discontinued for disease progression,[3]; of 20 patients,50%
same,"progressive disease confirmed while on study, patients",[3]; of 20 patients,10
same,"Therapy discontinued for disease progression, patients","[3]; of 20 patients, after a median of 2 cycles",10
same,longest progression-free interval,[3]; one patient with pancreatic adenocarcinoma,15 months
same,clinical benefit rate,[3]; treated population with advanced solid tumors,25%
same,"(AST/SGOT), Grade 3–4",[4]; [8],1 (50) ^* No. of Patients (%)
same,"Neutropenia, Grade 3–4",[4]; [8],1 (50) ^* No. of Patients (%)
same,"Thrombocytopenia, Grade 3–4",[4]; [8],1 (50) ^* No. of Patients (%)
same,"(AST/SGOT), Grade 3–4","[4]; All Gr 3–4, all dose levels",1 (5) No. of Patients (%)
same,"Anorexia, Grade 3–4","[4]; All Gr 3–4, all dose levels",1 (5) No. of Patients (%)
same,"Fatigue, Grade 3–4","[4]; All Gr 3–4, all dose levels",1 (5) No. of Patients (%)
same,"Hemoglobin (anemia), Grade 3–4","[4]; All Gr 3–4, all dose levels",2 (10) No. of Patients (%)
same,"Hypertension, Grade 3–4","[4]; All Gr 3–4, all dose levels",1 (5) No. of Patients (%)
same,"Hypoxia, Grade 3–4","[4]; All Gr 3–4, all dose levels",2 (10) No. of Patients (%)
same,"Infection, Grade 3–4","[4]; All Gr 3–4, all dose levels",1 (5) No. of Patients (%)
same,"Neutropenia, Grade 3–4","[4]; All Gr 3–4, all dose levels",4 (20) No. of Patients (%)
same,"Thrombocytopenia, Grade 3–4","[4]; All Gr 3–4, all dose levels",1 (5) No. of Patients (%)
same,"(AST/SGOT), all grades",[4]; [9],10%
same,"(AST/SGOT), all grades, No. of Patients",[4]; [9],2
same,"Alkaline phosphatase, all grades",[4]; [9],10%
same,"Alkaline phosphatase, all grades, No. of Patients",[4]; [9],2
same,"Anorexia, all grades",[4]; [9],20%
same,"Anorexia, all grades, No. of Patients",[4]; [9],4
same,"Diarrhea, all grades",[4]; [9],5%
same,"Diarrhea, all grades, No. of Patients",[4]; [9],1
same,"Fatigue, all grades",[4]; [9],25%
same,"Fatigue, all grades, No. of Patients",[4]; [9],5
same,"Headache, all grades",[4]; [9],20%
same,"Headache, all grades, No. of Patients",[4]; [9],4
same,"Hemoglobin (anemia), all grades, No. of Patients",[4]; [9],7
same,"Hemorrhage, all grades, No. of Patients",[4]; [9],1
same,"Hyperglycemia, all grades",[4]; [9],15%
same,"Hyperglycemia, all grades, No. of Patients",[4]; [9],3
same,"Hypertension, all grades",[4]; [9],5/5%
same,"Hypertension, all grades, No. of Patients",[4]; [9],1/1
same,"Neutropenia, all grades, No. of Patients",[4]; [9],11
same,"Thrombocytopenia, all grades, No. of Patients",[4]; [9],6
same,"Thrombosis, all grades, No. of Patients",[4]; [9],0
same,"Vomiting, all grades",[4]; [9],15%
same,"Vomiting, all grades, No. of Patients",[4]; [9],3
same,"hematological and infectious adverse events observed, number",[4]; among the 20 patients enrolled,27
same,"Hypokalemia, all grades","[4]; human, in vivo",5%
same,"Hypokalemia, all grades, No. of Patients","[4]; human, in vivo",1
same,"Hypotension, all grades","[4]; human, in vivo",5/5%
same,"Hypotension, all grades, No. of Patients","[4]; human, in vivo",1/1
same,"Hypoxia, all grades","[4]; human, in vivo",10%
same,"Hypoxia, all grades, No. of Patients","[4]; human, in vivo",2
same,"Infection, all grades","[4]; human, in vivo",15%
same,"Infection, all grades, No. of Patients","[4]; human, in vivo",3
same,"Nausea, all grades","[4]; human, in vivo",25%
same,"Nausea, all grades, No. of Patients","[4]; human, in vivo",5
same,Therapy discontinued for adverse events,[4]; of 20 patients,40%
same,"Therapy discontinued for adverse events, patients","[4]; of 20 patients, after a median of 1 cycle",8
same,DLT Description,[4]; oral 50 mg every 12 Hrs.,grade 3 hypertension
same,DLT Description,[4]; oral 150 mg every 12 Hrs.,grade 4 febrile neutropenia
same,DLT Description,[4]; oral 200 mg every 12 Hrs.,grade 3 hypoxia
same,MTD by the oral route higher than by the intravenous route,[4]; oral vs intravenous route,33%
same,maximum tolerated dose (MTD) of oral 3-AP,"[4]; per dose, every 12 hours for 5 doses on days 1–3, 8–10, 15–17 of each 28-day cycle",150 mg
same,durable 18-month complete pelvic tumor response rate,"advanced stage cancers; phase 1, radiation, cisplatin and three-times weekly intravenous 3-AP 25 mg/m^2, advanced stage cervical cancer, 10 of 10 women",100%
same,patients with at least stable disease as a best response,"advanced stage cancers; phase I, intravenous 3-AP in combination with gemcitabine, after 4 months of treatment",42%
same,stable disease rate,"advanced stage cancers; phase II, intravenous 3-AP and gemcitabine, relapsed nonsmall cell lung cancer",20%
same,AUC,[5]; [10],5.2 µM·h and 1.9 µM·h and 3.5 µM·h and 1.6 µM·h and 1.4 µM·h and 4.1 µM·h
same,Cmax,[5]; [10],1500 nM and 900 nM and 500 nM and 1100 nM
same,MRT,[5]; [10],2.6 h and 3.0 h and 3.4 h
same,Tmax,[5]; [10],3.0 h and 0.8 h and 1.0 h and 1.3 h
same,AUC,[5]; [11],6.5 µM·h and 2.3 µM·h
same,Cmax,[5]; [11],2500 nM
same,MRT,[5]; [11],3.0 h
same,AUC,[5]; [12],8.0 µM·h and 21.7 µM·h and 4.3 µM·h and 8.5 µM·h
same,Cmax,[5]; [12],5900 nM and 1600 nM and 10100 nM
same,MRT,[5]; [12],3.5 h and 1.7 h and 5.4 h and 3.3 h
same,Tmax,[5]; [12],0.8 h and 6.0 h
same,AUC,[5]; [13],56.0 µM·h and 19.5 µM·h
same,Cmax,[5]; [13],800 nM and 4600 nM
same,MRT,[5]; [13],3.9 h
same,Tmax,[5]; [13],3.0 h
same,bioavailability,"[5]; human, serum, po",67 ± 29%
same,MRT,"[5]; human, serum, po, 50 mg, MRT, oral dose 50 mg, individual patients",4.2 h
same,MRT,"[5]; human, serum, po, 100 mg, MRT, oral dose 100 mg, individual patients",2.8 h
same,AUC,"[5]; human, serum, po, 150 mg, AUC, Avg., average for patients receiving an oral dose of 150 mg",10.6 µM·h
same,Cmax,"[5]; human, serum, po, 150 mg, Cmax, Avg., average for patients receiving an oral dose of 150 mg",5000 nM
same,MRT,"[5]; human, serum, po, 200 mg, MRT, oral dose 200 mg, individual patients",2.5 h
same,MRT,"[5]; human, serum, po, MRT, Avg., mean across dose levels",3.2 h
same,Tmax,"[5]; human, serum, po, Tmax, Avg., mean across dose levels",1.9 h
